Results published in US4704395A, “Cyclic ether esters of 2-substituted-6-(substituted and unsubstituted) dihydrolysergic acid useful as 5HT receptor antagonists” (Eli Lilly and Company, priority 1985, dated 1987).

Target: T1, 5HT2 receptors (Rattus norvegicus, UniProt P14842)
T1 construct: their external jugular veins and thoracic aortas dissected free of connective tissue; from tissue; host or cells: external jugular vein of male Wistar rats
Experiment: Apparent dissociation constants (KB) for 5HT2 receptors determined in the rat jugular vein (antagonism of serotonin contraction)
Settings: antagonist incubated one hour, 37° C., maleate salt, read-out: Apparent Dissociation Constants for 5HT2 receptors, -Log Kb ± S.E. (converted)
Procedure: An initial optimum resting force of 1 and 4 g was applied to the jugular vein and aorta, respectively. […] Exp. Ther., 205, 400 (1978). Alpha receptor antagonist activity was evaluated in the aorta.

T1 sequence (P14842 whole entry): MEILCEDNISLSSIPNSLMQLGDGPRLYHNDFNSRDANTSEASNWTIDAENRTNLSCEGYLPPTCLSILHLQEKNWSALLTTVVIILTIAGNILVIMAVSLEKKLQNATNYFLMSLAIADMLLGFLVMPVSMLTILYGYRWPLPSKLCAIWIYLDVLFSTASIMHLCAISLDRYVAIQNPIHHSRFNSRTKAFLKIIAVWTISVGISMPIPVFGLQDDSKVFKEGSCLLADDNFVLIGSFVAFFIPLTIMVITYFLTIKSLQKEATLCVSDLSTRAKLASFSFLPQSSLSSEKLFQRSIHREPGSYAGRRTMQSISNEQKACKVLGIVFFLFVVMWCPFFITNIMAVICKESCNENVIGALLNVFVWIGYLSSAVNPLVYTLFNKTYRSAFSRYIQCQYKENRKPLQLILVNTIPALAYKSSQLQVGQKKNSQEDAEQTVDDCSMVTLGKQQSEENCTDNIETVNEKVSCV

SMILES	Kb
CC(C)n1cc2c3c(cccc31)[C@H]1C[C@@H](C(=O)OCC3CCCO3)CN(C)[C@@H]1C2 (stereo partly shown)	6.31 nM
CC(C)n1cc2c3c(cccc31)[C@H]1C[C@@H](C(=O)OCC3CCCCO3)CN(C)[C@@H]1C2 (stereo partly shown)	1.91 nM
CC(C)n1cc2c3c(cccc31)[C@H]1C[C@@H](C(=O)OCCCC3CCCO3)CN(C)[C@@H]1C2 (stereo partly shown)	5.62 nM
CC(C)n1cc2c3c(cccc31)[C@H]1C[C@@H](C(=O)OC3CCOCC3)CN(C)[C@@H]1C2	0.129 nM
